Each molecule was assayed against PI 3-kinase alpha (Homo sapiens (Human), UniProt P42336) (assay: Kinase Glo Luminescent Kinase Assay (Assay A)). Details: 1 μM ATP, read-out: Assay A PI3Kα IC50.
Assay type: biochemical
Text: Kinase Glo Luminescent Kinase Assay (Kglo) for PI 3-Kinase Alpha (A), Pb 3-Kinase Beta (B), Vps34 (C), PI 4-Kinase Beta (D)
The luminescence-based ATP detection reagent KinaseGlo was obtained from Promega, (Cat. No. V6714, Lot No. 236161) through Catalys, Wallisellen, Switzerland. L-alpha-phosphatidylinositol (PI, liver, bovine) was obtained from Avanti Polar Lipid (Cat. No. 840042C, Lot#LPI-274), Phosphatidylinositol-4,5-bisphosphate (PIP(4,5)2) was also obtained from Avanti Polar Lipid (Cat. No. 840046X). L-α-Phosphatidylserine (PS) was obtained from Avanti Polar Lipid (Cat. No. 840032C), n-Octylglucoside from Avanti Polar Lipid (Cat. No. 10634425001). Luminescence is a well established readout to determine ATP concentrations and can thus be used to follow the activity of many kinases regardless of their substrate. The Kinase Glo Luminescent Kinase Assay (Promega, Madison/WI, USA) is a homogeneous HTS method of measuring kinase activity by quantifying the amount of ATP remaining in solution following a kinase reaction.
50 nL of compound dilutions were dispensed onto black 384-well low volume Non Binding Styrene (NBS) plates (Costar Cat. No. NBS#3676). L-α-phosphatidylinositol (PI), provided as 10 mg/ml solution in methanol, was transferred into a glass tube and dried under a nitrogen beam. It was then resuspended in 3% OctylGlucoside (1-O-n-octyl-beta-D-glucopyranoside) by vortexing and stored at 4° C. 5 μL of a mix of PI/OctylGlucoside with the PI 3-kinase alpha and PI 3-kinase beta subtypes, or Vps34 or PI 4-kinase beta were added. Kinase reactions were started by the addition of 5 μl of an ATP-mix containing in a final volume 10 μL 10 mM TRIS-HCl pH 7.5, 3 mM MgCl2, 50 mM NaCl, 0.05% CHAPS, 1 mM DTT and 1 μM ATP at room temperature. Reactions were stopped with 10 μl of KinaseGlo and plates were read 10 mins later in a Synergy2 reader using an integration time of 0.1 seconds per well. 2.5 μM of NVP-BGT226 (1-(3-(trifluoromethyl)-4-(piperazin-1-yl)phenyl)-8-(6-methoxypyridin-3-yl)-3-methyl-1H-imidazo[4,5-c]quinolin-2(3H)-one) was added to the assay plates to generate the 100% inhibition of the kinase reaction, and the 0% inhibition was given by the solvent vehicle (90% DMSO in water). (1-(3-(trifluoromethyl)-4-(piperazin-1-yl)phenyl)-8-(6-methoxypyridin-3-yl)-3-methyl-1H-imidazo[4,5-c]quinolin-2(3H)-one) was used as a reference compound and included in all assay plates in the form of 16 dilution points in duplicate.
IC50 values of the percentage inhibition of each compound at 8 concentrations (10, 3.0, 1.0, 0.3, 0.1, 0.030, 0.010 and 0.003 μM) n=2 were derived by fitting a sigmoidal dose-response curve to a plot of assay readout over inhibitor concentration as described. All fits were performed with the program XLfit4 (ID Business Solutions, Guildford, UK).

Sequence of PI 3-kinase alpha (P42336 21-1068): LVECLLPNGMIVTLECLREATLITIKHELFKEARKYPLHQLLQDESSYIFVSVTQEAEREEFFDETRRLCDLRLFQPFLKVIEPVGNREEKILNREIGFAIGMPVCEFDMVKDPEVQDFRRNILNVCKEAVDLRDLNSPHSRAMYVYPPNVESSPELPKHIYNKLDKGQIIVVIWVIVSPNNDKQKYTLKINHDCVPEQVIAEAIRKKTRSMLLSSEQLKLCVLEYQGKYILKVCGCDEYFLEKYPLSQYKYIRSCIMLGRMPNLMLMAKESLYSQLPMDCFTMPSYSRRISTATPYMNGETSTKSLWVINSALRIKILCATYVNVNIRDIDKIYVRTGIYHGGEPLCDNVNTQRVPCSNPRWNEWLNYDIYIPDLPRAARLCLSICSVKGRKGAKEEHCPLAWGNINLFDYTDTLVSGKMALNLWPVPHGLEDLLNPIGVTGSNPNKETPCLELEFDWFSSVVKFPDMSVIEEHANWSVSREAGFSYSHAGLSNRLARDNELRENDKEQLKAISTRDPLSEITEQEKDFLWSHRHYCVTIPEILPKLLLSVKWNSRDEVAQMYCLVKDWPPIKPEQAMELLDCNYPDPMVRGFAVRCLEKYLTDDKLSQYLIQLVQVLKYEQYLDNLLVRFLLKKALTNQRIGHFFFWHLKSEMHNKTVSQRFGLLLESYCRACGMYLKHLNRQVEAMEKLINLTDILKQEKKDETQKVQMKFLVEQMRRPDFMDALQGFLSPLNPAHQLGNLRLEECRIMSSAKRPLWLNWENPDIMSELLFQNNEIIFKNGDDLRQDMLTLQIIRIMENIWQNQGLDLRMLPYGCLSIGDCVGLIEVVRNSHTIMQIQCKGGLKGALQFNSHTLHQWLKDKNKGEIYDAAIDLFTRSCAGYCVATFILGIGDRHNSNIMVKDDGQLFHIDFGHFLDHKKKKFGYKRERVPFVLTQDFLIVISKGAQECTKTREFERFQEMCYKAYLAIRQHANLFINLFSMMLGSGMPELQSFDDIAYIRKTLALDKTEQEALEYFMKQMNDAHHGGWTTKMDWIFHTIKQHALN

`Cc1ncc(-c2cncc(-c3cc(S(=O)(=O)NCCCO)ccc3C)n2)s1` [Example 1, N-(3-Hydroxy-propyl)-4-methyl-3-[6-(2-methyl-thiazol-5-yl)-pyrazin-2-yl]-benzenesulfonamide] and `Cc1ncc(-c2cncc(-c3cc(S(=O)(=O)N[C@H]4CC[C@H](O)CC4)ccc3C)n2)s1` [Example 5, Trans N-(4-Hydroxycyclohexyl)-4-methyl-3-(6-(2-methylthiazol-5-yl)pyrazin-2-yl)benzenesulfonamide] are within 1.5-fold of each other in IC50: 190 nM for the first, 150 nM for the second.

First: Cc1ccc(S(=O)(=O)NCC(C)(C)O)cc1-c1cncc(-c2cn(C)nc2C)n1 [Example 2, 3-[6-(1,3-Dimethyl-1H-pyrazol-4-yl)-pyrazin-2-yl]-N-(2-hydroxy-2-methyl-propyl)-4-methyl-benzenesulfonamide]
Second: Cc1ccc(S(=O)(=O)NCCC(C)(C)O)cc1-c1cncc(-c2cn(C)nc2C)n1 [Example 3, 3-[6-(1,3-Dimethyl-1H-pyrazol-4-yl)-pyrazin-2-yl]-N-(3-hydroxy-3-methyl-butyl)-4-methyl-benzenesulfonamide]
The IC50 of the first is 1.6-fold lower: 50 nM for the first, 80 nM for the second.

`Cc1ccc(S(=O)(=O)NCC2(C)COC2)cc1-c1cncc(-c2cn(C)nc2C)n1` [Example 4, Trans 3-[6-(1,3-Dimethyl-1H-pyrazol-4-yl)-pyrazin-2-yl]-4-methyl-N-(3-methyl-oxetan-3-ylmethyl)-benzenesulfonamide] and `Cc1ccc(S(=O)(=O)NCC(C)(C)CO)cc1-c1cncc(-c2cn(C)nc2C)n1` [Example 8, 3-[6-(1,3-Dimethyl-1H-pyrazol-4-yl)-pyrazin-2-yl]-N-(3-hydroxy-2,2-dimethyl-propyl)-4-methyl-benzenesulfonamide] are the same in IC50: 60 nM for the first, 60 nM for the second.

Compared with `Cc1ccc(S(=O)(=O)NCCC(C)(C)O)cc1-c1cncc(-c2cnn(CCN3CCOCC3)c2)n1` [Example 9, N-(3-Hydroxy-3-methyl-butyl)-4-methyl-3-{6-[1-(2-morpholin-4-yl-ethyl)-1H-pyrazol-4-yl]-pyrazin-2-yl}-benzenesulfonamide], `Cc1ccc(S(=O)(=O)NCCC(C)(C)O)cc1-c1cncc(-c2cn(CCN3CCOCC3)nc2C)n1` [Example 10, N-(3-Hydroxy-3-methyl-butyl)-4-methyl-3-{6-[3-methyl-1-(2-morpholin-4-yl-ethyl)-1H-pyrazol-4-yl]-pyrazin-2-yl}-benzenesulfonamide] is 3.7-fold lower in IC50: 260 nM for the first, 70 nM for the second. The second is the more potent here.

Work on `Cc1ccc(S(=O)(=O)N[C@H]2CC[C@H](O)CC2)cc1-c1cncc(-c2cccnc2)n1` [Example 11, Trans N-(4-Hydroxy-cyclohexyl)-4-methyl-3-(6-pyridin-3-yl-pyrazin-2-yl)-benzenesulfonamide] yielded an IC50 of 400 nM.
